From ChEMBL document CHEMBL1138895, “Synthesis and antibacterial activity of nocathiacin I analogues” (Bioorg Med Chem Lett, 2006) come the findings set out here.

The subject of data set [1] is Streptococcus pneumoniae. In words: Antibacterial activity against penicillin resistant Streptococcus pneumoniae A28272. It is filed as functional.
Data set [2] in a line: Solubility at pH 3.1. The note with it: buffer. In kind it is physicochemical.
Data set [3] concerns Enterococcus faecalis. In words: Antibacterial activity against […] A20688. It is filed as functional.
In data set [4] the test system is Staphylococcus aureus. Put plainly: Antibacterial activity against methicillin-sensitive Staphylococcus aureus A15090. It is filed as functional.
The species named for data set [5] is Mus musculus. In words: Activity against Staphylococcus aureus A15090 infected ICR mouse after 8 days. It is filed as functional. The note with it: 192 h, read-out: PD50.
Data set [6] in a line: Solubility at pH 7.4. It is filed as physicochemical. The note with it: buffer.
The nature of data set [7]: Solubility at pH 3.2. In kind it is physicochemical. The note with it: buffer.
Data set [8] is described as follows: Solubility at pH 3.0. In kind it is physicochemical. The note with it: buffer.

≈ marks a conversion by molar mass, not a printed value.

Usually MIC stands for the lowest concentration that inhibits growth of the organism. The solubility is how much of the substance goes into solution per volume. A low value points to a poorly soluble substance.

Consider `CO/C(C)=C1/NC(=O)[C@H]([C@@H](C)O)NC(=O)c2csc(n2)-c2cc(O)c(-c3nc(C(=O)N[C@@H](C)C(=O)NCCO)cs3)nc2-c2csc(n2)[C@@H]2COC(=O)c3c4c5c(cccc5n3O)COC(=O)[C@@H](O[C@H]3C[C@](C)(O)[C@H](N(C)C)[C@H](C)O3)[C@@H](OC4)[C@H](NC(=O)c3csc1n3)c1nc(cs1)C(=O)N2`, for which the MIC in data set [1] was 0.001 µg/mL (≈ 0.000674 µM); in data set [3], 0.5 µg/mL (≈ 0.337 µM); in data set [4] it was 0.03 µg/mL (≈ 0.0202 µM). In data set [2], this molecule gave a solubility of 1300 µg/mL (≈ 876 µM). In addition, in data set [5], the ED50 amounted to 1.44 mg/kg.
As to `CO/C(C)=C1/NC(=O)[C@H]([C@@H](C)O)NC(=O)c2csc(n2)-c2cc(O)c(-c3nc(C(=O)N[C@@H](C)C(=O)NCCOP(=O)([O-])[O-])cs3)nc2-c2csc(n2)[C@@H]2COC(=O)c3c4c5c(cccc5n3O)COC(=O)[C@@H](O[C@H]3C[C@](C)(O)[C@H](N(C)C)[C@H](C)O3)[C@@H](OC4)[C@H](NC(=O)c3csc1n3)c1nc(cs1)C(=O)N2.[Na+].[Na+]`, the MIC came out at 0.5 µg/mL in data set [1], 16 µg/mL in data set [3] and 8 µg/mL in data set [4]. The molecule also yielded a solubility in data set [6] of over 4800 µg/mL. Besides, the ED50 in data set [5] was 1.65 mg/kg.
In data set [7], `CO/C(C)=C1/NC(=O)[C@H]([C@@H](C)O)NC(=O)c2csc(n2)-c2cc(O)c(-c3nc(C(=O)N[C@@H](C)C(=O)N4CCC(O)CC4)cs3)nc2-c2csc(n2)[C@@H]2COC(=O)c3c4c5c(cccc5n3O)COC(=O)[C@@H](O[C@H]3C[C@](C)(O)[C@H](N(C)C)[C@H](C)O3)[C@@H](OC4)[C@H](NC(=O)c3csc1n3)c1nc(cs1)C(=O)N2` displayed a solubility of 1100 µg/mL (≈ 722 µM). Moreover, the minimum inhibitory concentration (MIC) in data set [1] is 0.003 µg/mL (≈ 0.00197 µM); in data set [3], 0.06 µg/mL (≈ 0.0394 µM); in data set [4], 0.007 µg/mL (≈ 0.00459 µM). In data set [5], the ED50 came to 4.35 mg/kg.
For the molecule `CO/C(C)=C1/NC(=O)[C@H]([C@@H](C)O)NC(=O)c2csc(n2)-c2cc(O)c(-c3nc(C(=O)N[C@@H](C)C(N)=O)cs3)nc2-c2csc(n2)[C@@H]2COC(=O)c3c4c5c(cccc5n3O)COC(=O)[C@@H](O[C@H]3C[C@](C)(O)[C@H](N(C)C)[C@H](C)O3)[C@@H](OC4)[C@H](NC(=O)c3csc1n3)c1nc(cs1)C(=O)N2`, the values for the minimum inhibitory concentration (MIC) in data set [1], in data set [3] and in data set [4] were 0.06 µg/mL (≈ 0.0417 µM), 2 µg/mL (≈ 1.39 µM) and 0.25 µg/mL (≈ 0.174 µM), respectively. The same molecule registered a solubility in data set [2] of 700 µg/mL (≈ 486 µM). For the same molecule, the ED50 in data set [5] worked out at 1.65 mg/kg.
For the molecule `COCCOCCOCCOCCNC(=O)[C@H](C)NC(=O)c1csc(-c2nc3c(cc2O)-c2nc(cs2)C(=O)N[C@@H]([C@@H](C)O)C(=O)N/C(=C(\C)OC)c2nc(cs2)C(=O)N[C@@H]2c4nc(cs4)C(=O)N[C@@H](COC(=O)c4c5c6c(cccc6n4O)COC(=O)[C@@H](O[C@H]4C[C@](C)(O)[C@H](N(C)C)[C@H](C)O4)[C@H]2OC5)c2nc-3cs2)n1`, the figures for the minimum inhibitory concentration (MIC) in data set [1], in data set [3] and in data set [4] were 0.003 µg/mL (≈ 0.00184 µM), 0.5 µg/mL (≈ 0.307 µM) and 0.06 µg/mL (≈ 0.0368 µM), respectively.
On to `CO/C(C)=C1/NC(=O)[C@H]([C@@H](C)O)NC(=O)c2csc(n2)-c2cc(O)c(-c3nc(C(=O)N[C@@H](C)C(=O)NCCc4cc(O)cc(O)c4)cs3)nc2-c2csc(n2)[C@@H]2COC(=O)c3c4c5c(cccc5n3O)COC(=O)[C@@H](O[C@H]3C[C@](C)(O)[C@H](N(C)C)[C@H](C)O3)[C@@H](OC4)[C@H](NC(=O)c3csc1n3)c1nc(cs1)C(=O)N2`, for which the MIC in data set [1] was 0.06 µg/mL (≈ 0.0381 µM); in data set [3] it was 0.5 µg/mL (≈ 0.317 µM); in data set [4], 0.25 µg/mL (≈ 0.159 µM). Further, in data set [8], the concentration in solution (solubility) was 20 µg/mL (≈ 12.7 µM). For the same molecule, the ED50 in data set [5] was over 10 mg/kg.
Turning to `CO/C(C)=C1/NC(=O)[C@H]([C@@H](C)O)NC(=O)c2csc(n2)-c2cc(O)c(-c3nc(C(=O)N[C@@H](C)C(=O)NCc4ccc(CP(=O)(O)O)cc4)cs3)nc2-c2csc(n2)[C@@H]2COC(=O)c3c4c5c(cccc5n3O)COC(=O)[C@@H](O[C@H]3C[C@](C)(O)[C@H](N(C)C)[C@H](C)O3)[C@@H](OC4)[C@H](NC(=O)c3csc1n3)c1nc(cs1)C(=O)N2`, the minimal inhibitory concentration (MIC) was 0.25 µg/mL (≈ 0.154 µM) in data set [1], 2 µg/mL (≈ 1.23 µM) in data set [3] and 1 µg/mL (≈ 0.616 µM) in data set [4]. For the same molecule, the solubility in data set [6] was over 2600 µg/mL. Further, the ED50 in data set [5] is over 10 mg/kg.
`CO/C(C)=C1/NC(=O)[C@H]([C@@H](C)O)NC(=O)c2csc(n2)-c2cc(O)c(-c3nc(C(=O)N[C@@H](C)C(=O)N(C)C[C@@H](O)[C@@H](O)[C@@H](O)[C@@H](O)CO)cs3)nc2-c2csc(n2)[C@@H]2COC(=O)c3c4c5c(cccc5n3O)COC(=O)[C@@H](O[C@H]3C[C@](C)(O)[C@H](N(C)C)[C@H](C)O3)[C@@H](OC4)[C@H](NC(=O)c3csc1n3)c1nc(cs1)C(=O)N2` had a solubility in data set [7] of over 2400 µg/mL. The MIC in data set [1] is 0.015 µg/mL (≈ 0.00927 µM); in data set [3] it was 0.5 µg/mL (≈ 0.309 µM); in data set [4], 0.125 µg/mL (≈ 0.0773 µM).
